Results published in patent US8952043B2, “Benzoxepin PI3K inhibitor compounds and methods of use” (Genentech, Inc., priority 2009, dated 2015).

Legend:
[1] = molecular target: T1, p110 alpha PI3K (Homo sapiens, UniProt P42336); assay: p110α (alpha) PI3K binding assay (fluorescence polarization); conditions: read-out: IC50 (inhibition of PI3K alpha, p110 alpha)
T1 construct: purchased Upstate Cell Signaling Solutions, Charlottesville, Va
Method: Determination of the PI3 kinase activity of a Formula I compound is possible by a number of direct and indirect detection methods. Certain exemplary compounds described herein were assayed for their p110α (alpha), and other isoform, PI3K binding activity (Example 601) and in vitro activity against tumor cells (Example 602).
Binding Assays: Initial polarization experiments were performed on an Analyst HT 96-384 (Molecular Devices Corp, Sunnyvale, Calif.). […] After an incubation time of 30 minutes at room temperature, the reactions were stopped by the addition of GRP-1 and PIP3-TAMRA probe (Echelon-Inc., Salt Lake City, Utah.) 100 nM and 5 nM final concentrations respectively. Read with standard cut-off filters for the rhodamine fluorophore (λex=530 nm; λem=590 nm) in 384-well black low volume Proxiplates (PerkinElmer, Wellesley, Mass.) Fluorescence polarization values were plotted as a function of the protein concentration, and the EC50 values were obtained by fitting the data to a 4-parameter equation using KaleidaGraph software (Synergy software, Reading, Pa.). This experiment also establishes the appropriate protein concentration to use in subsequent competition experiments with inhibitors.
Inhibitor IC50 values were determined by addition of the 0.04 mg/mL p110 alpha PI3K (final concentration) combined with PIP2 ([…] final concentration) to wells containing 1:3 serial dilutions of the antagonists in a final concentration of […] ATP (Cell Signaling Technology, Inc., Danvers, Mass.) in the polarization buffer. After an incubation time of 30 minutes at room temperature, the reactions were stopped by the addition of GRP-1 and PIP3-TAMRA probe (Echelon-Inc., Salt Lake City, Utah.) 100 nM and 5 nM final concentrations respectively. Read with standard cut-off filters for the rhodamine fluorophore (λex=530 nm; λem=590 nm) in 384-well black low volume proxi plates (PerkinElmer, Wellesley, Mass.) Fluorescence polarization values were plotted as a function of the antagonist concentration, and the IC50 values were obtained by fitting the data to a 4-parameter equation in Assay Explorer software (MDL, San Ramon, Calif.).
Alternatively, inhibition of PI3K was determined in a radiometric assay using purified, recombinant enzyme and ATP at a concentration of 1 uM. The Formula I compound was serially diluted in 100% DMSO. The kinase reaction was incubated for 1 hr at room temperature, and the reaction was terminated by the addition of PBS. IC50 values were subsequently determined using sigmoidal dose-response curve fit (variable slope).

[2] = test system: MDA-MB-361.1; assay: CellTiter-Glo cell proliferation assay, MDA-MB-361.1; assay type: cell-based; conditions: Breast, mutation status PI3K
Method: (§1) The in vitro potency of Formula I exemplary compounds was measured by the cell proliferation assay, CellTiter-Glo® Luminescent Cell Viability Assay, commercially available from Promega Corp., Madison, Wis. (Example 602). This homogeneous assay method is based on the recombinant expression of Coleoptera luciferase (U.S. Pat. Nos. 5,583,024; 5,674,713; 5,700,670) and determines the number of viable cells in culture based on quantitation of the ATP present, an indicator of metabolically active cells (Crouch et al (1993) J. Immunol. Meth. 160:81-88; U.S. Pat. No. 6,602,677). The CellTiter-Glo® Assay was conducted in 96 or 384 well format, making it amenable to automated high-throughput screening (HTS) (Cree et al (1995) AntiCancer Drugs 6:398-404). The homogeneous assay procedure involves adding the single reagent (CellTiter-Glo® Reagent) directly to cells cultured in serum-supplemented medium. Cell washing, removal of medium and multiple pipetting steps are not required. The system detects as few as 15 cells/well in a 384-well format in 10 minutes after adding reagent and mixing.
(§2) Efficacy of Formula I compounds were measured by a cell proliferation assay employing the following protocol (Promega Corp. Technical Bulletin TB288; Mendoza et al (2002) Cancer Res. 62:5485-5488):
(§3) 1. An aliquot of 100 μl of cell culture containing about 10^4 cells (PC3, Detroit562, or MDAMB361.1) in medium was deposited in each well of a 384-well, opaque-walled plate.
(§4) 2. Control wells were prepared containing medium and without cells.
(§5) 3. The compound was added to the experimental wells and incubated for 3-5 days.
(§6) 4. The plates were equilibrated to room temperature for approximately 30 minutes.
(§7) 5. A volume of CellTiter-Glo Reagent equal to the volume of cell culture medium present in each well was added.
(§8) 6. The contents were mixed for 2 minutes on an orbital shaker to induce cell lysis.
(§9) 7. The plate was incubated at room temperature for 10 minutes to stabilize the luminescence signal.
(§10) 8. Luminescence was recorded and reported in graphs as RLU=relative luminescence units.
(§11) Alternatively, cells were seeded at optimal density in a 96 well plate and incubated for 4 days in the presence of test compound. Alamar Blue™ was subsequently added to the assay medium, and cells were incubated for 6 hr before reading at 544 nm excitation, 590 nm emission. EC50 values were calculated using a sigmoidal dose response curve fit. […] It is commonly used as a measure of drug potency.
(§12) The anti-proliferative effects of Formula I exemplary compounds were measured by the CellTiter-Glo® Assay against various tumor cell lines, including the following: […]

[3] = test system: MFM223; assay: CellTiter-Glo cell proliferation assay, MFM223; assay type: cell-based; conditions: Homo sapiens, MFM-223, Breast, mutation status PI3K
Method: as §1, §2
1. […]
as §9, §10
(§13) Alternatively, cells were seeded at optimal density in a 96 well plate and incubated for 4 days in the presence of test compound. Alamar Blue™ was subsequently added to the assay medium, and cells were incubated for 6 hr before reading at 544 nm excitation, 590 nm emission. EC50 values were calculated using a sigmoidal dose response curve fit. […]
as §12

[4] = test system: HCC1954; assay: CellTiter-Glo cell proliferation assay, HCC1954; assay type: cell-based; conditions: Homo sapiens, Breast, mutation status PI3K
Method: as §1, §2
1. […]
as §9, §10, §13, §12

[5] = test system: T47D; assay: CellTiter-Glo cell proliferation assay, T47D; assay type: cell-based; conditions: Homo sapiens, Breast, mutation status PI3K
Method: as §1, §2
1. […]
as §9, §10, §13, §12

[6] = test system: AU565; assay: CellTiter-Glo cell proliferation assay, AU565; assay type: cell-based; conditions: Homo sapiens, Breast, mutation status WT
Method: as §1, §2, §3, §4, §5, §6, §7, §8, §9, §10, §11, §12

[7] = test system: H520; assay: CellTiter-Glo cell proliferation assay, H520; assay type: cell-based; conditions: Homo sapiens, NCI-H520, Lung(NSCLC), mutation status PTEN
Method: (§14) The in vitro potency of Formula I exemplary compounds was measured by the cell proliferation assay, CellTiter-Glo® Luminescent Cell Viability Assay, commercially available from Promega Corp., Madison, Wis. (Example 602). This homogeneous assay method is based on the recombinant expression of Coleoptera luciferase (U.S. Pat. Nos. 5,583,024; 5,674,713; 5,700,670) and determines the number of viable cells in culture based on quantitation of the ATP present, an indicator of metabolically active cells (Crouch et al (1993) J. Immunol. Meth. 160:81-88; U.S. Pat. No. 6,602,677). […]
(§15) Efficacy of Formula I compounds were measured by a cell proliferation assay employing the following protocol (Promega Corp. Technical Bulletin TB288; Mendoza et al (2002) Cancer Res. 62:5485-5488): […]
as §9, §10, §13

[8] = test system: KPL4; assay: CellTiter-Glo cell proliferation assay, KPL4; assay type: cell-based; conditions: Breast, mutation status PI3K
Method: as §1, §2
1. […]
as §9, §10, §13, §12

[9] = test system: U87MG; assay: CellTiter-Glo cell proliferation assay, U87MG; assay type: cell-based; conditions: Homo sapiens, U-87 MG, Glioma, mutation status PTEN
Method: as §14, §15, §9, §10, §13

[10] = test system: KM12; assay: CellTiter-Glo cell proliferation assay, KM12; assay type: cell-based; conditions: Homo sapiens, Colon, mutation status PTEN
Method: as §14, §15, §9, §10, §13

[11] = test system: H2122; assay: CellTiter-Glo cell proliferation assay, H2122; assay type: cell-based; conditions: Homo sapiens, NCI-H2122, Lung(NSCLC), mutation status K-RAS
Method: as §1, §2
1. […]
as §9, §10, §13, §12

[12] = test system: BT474; assay: CellTiter-Glo cell proliferation assay, BT474; assay type: cell-based; conditions: Homo sapiens, BT-474, Breast, mutation status PI3K(amped)
Method: as §1, §2
1. […]
as §9, §10, §13, §12

[13] = test system: EVSA-T; assay: CellTiter-Glo cell proliferation assay, EVSA-T; assay type: cell-based; conditions: Homo sapiens, Breast, mutation status PTEN
Method: as §1, §2, §3, §4, §5, §6, §7, §8, §9, §10, §11, §12

[14] = test system: MDST8; assay: CellTiter-Glo cell proliferation assay, MDST8; assay type: cell-based; conditions: Colon, mutation status PTEN
Method: as §14, §15, §9, §10, §13

[15] = test system: PC3; assay: CellTiter-Glo cell proliferation assay, PC3; assay type: cell-based; conditions: Homo sapiens, PC-3, Prostate, mutation status PTEN
Method: as §1, §2
1. […]
as §9, §10, §13, §12

T1 sequence (P42336 whole entry): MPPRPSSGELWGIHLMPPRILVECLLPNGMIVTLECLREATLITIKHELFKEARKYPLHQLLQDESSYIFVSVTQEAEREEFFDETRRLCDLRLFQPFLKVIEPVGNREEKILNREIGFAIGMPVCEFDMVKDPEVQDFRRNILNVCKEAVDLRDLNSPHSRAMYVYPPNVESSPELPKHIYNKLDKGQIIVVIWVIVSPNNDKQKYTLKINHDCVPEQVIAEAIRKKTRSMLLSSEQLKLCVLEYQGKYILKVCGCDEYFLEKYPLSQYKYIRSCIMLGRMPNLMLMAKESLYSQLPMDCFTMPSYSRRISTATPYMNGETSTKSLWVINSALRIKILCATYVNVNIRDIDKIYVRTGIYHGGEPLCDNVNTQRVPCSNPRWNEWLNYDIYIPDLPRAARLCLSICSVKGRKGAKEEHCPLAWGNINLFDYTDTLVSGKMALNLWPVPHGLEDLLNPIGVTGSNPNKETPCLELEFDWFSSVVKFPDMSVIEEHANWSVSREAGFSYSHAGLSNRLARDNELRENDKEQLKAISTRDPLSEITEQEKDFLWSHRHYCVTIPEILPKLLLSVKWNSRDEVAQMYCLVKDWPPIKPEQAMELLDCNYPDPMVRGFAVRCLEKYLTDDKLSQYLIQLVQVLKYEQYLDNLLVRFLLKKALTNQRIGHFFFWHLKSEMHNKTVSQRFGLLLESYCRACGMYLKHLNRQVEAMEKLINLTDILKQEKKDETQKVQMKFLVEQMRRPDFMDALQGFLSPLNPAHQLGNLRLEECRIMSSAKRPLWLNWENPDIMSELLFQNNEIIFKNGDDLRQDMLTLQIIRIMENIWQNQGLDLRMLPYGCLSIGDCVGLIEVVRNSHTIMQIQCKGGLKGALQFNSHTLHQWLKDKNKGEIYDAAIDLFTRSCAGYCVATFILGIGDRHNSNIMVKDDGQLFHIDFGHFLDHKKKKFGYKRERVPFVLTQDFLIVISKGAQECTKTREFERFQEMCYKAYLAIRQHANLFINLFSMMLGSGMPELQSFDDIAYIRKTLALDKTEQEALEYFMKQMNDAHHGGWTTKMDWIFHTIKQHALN
T1 sequence (P27986 whole entry partner): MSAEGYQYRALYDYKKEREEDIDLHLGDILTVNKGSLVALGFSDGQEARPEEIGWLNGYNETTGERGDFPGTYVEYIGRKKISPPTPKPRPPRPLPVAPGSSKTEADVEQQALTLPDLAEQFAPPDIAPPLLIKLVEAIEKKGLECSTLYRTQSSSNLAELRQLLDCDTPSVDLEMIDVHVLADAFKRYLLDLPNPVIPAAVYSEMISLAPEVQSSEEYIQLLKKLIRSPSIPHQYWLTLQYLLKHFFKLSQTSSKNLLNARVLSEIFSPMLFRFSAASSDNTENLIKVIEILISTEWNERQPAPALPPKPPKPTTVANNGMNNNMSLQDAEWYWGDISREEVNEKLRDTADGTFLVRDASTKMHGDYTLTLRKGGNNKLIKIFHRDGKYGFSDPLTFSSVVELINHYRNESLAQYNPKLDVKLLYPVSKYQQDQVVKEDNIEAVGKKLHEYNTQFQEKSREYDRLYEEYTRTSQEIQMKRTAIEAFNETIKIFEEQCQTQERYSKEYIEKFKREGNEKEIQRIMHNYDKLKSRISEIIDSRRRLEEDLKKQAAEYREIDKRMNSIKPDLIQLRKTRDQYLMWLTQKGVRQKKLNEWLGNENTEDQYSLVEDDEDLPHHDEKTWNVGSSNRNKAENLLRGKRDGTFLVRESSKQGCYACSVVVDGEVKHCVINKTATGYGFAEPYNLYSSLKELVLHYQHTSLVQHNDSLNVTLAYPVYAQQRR

Structure (SMILES) | IC50 [1] [nM] | EC50 [2] [nM] | EC50 [6] [nM] | EC50 [13] [nM] | also measured
O=C(c1nc2c(s1)CCOc1cc(-c3cn[nH]c3)ccc1-2)N1CCC[C@@H]1CO [compound 101, ((R)-2-Hydroxymethyl-pyrrolidin-1-yl)-[8-(1H-pyrazol-4-yl)-4,5-dihydro-6-oxa-3-thia-1-aza-benzo[e]azulen-2-yl]-methanone] | 31 | – | – | – | –
CC(C)n1ncnc1-c1cc2c(s1)-c1ccc(-c3cccc(C(=O)O)c3)cc1OCC2 [compound 147, 3-(2-(1-isopropyl-1H-1,2,4-triazol-5-yl)-4,5-dihydrobenzo[b]thieno[2,3-d]oxepin-8-yl)benzoic acid] | 21 | – | – | – | –
CC(C)n1nc(N)nc1-c1nc2c(s1)CCOc1cc(C3CN(CCS(C)(=O)=O)C3)ccc1-2 [compound 463, 1-Isopropyl-5-{8-[1-(2-methanesulfonyl-ethyl)-azetidin-3-yl]-4,5-dihydro-6-oxa-3-thia-1-aza-benzo[e]azulen-2-yl}-1H-[1,2,4]triazol-3-ylamine] | – | 855 | 225 | 746 | EC50 [3]: 559 nM; EC50 [4]: 340 nM; EC50 [5]: 185 nM; EC50 [7]: 972 nM; EC50 [8]: 103 nM; EC50 [9]: 2090 nM; EC50 [10]: 321 nM; EC50 [11]: 542 nM; EC50 [12]: 638 nM; EC50 [14]: 1720 nM; EC50 [15]: 185 nM
CNC(=O)c1ccc2c(c1)OCCc1cc(-c3nc(N)nn3-c3ccc(F)cc3F)sc1-2 [compound 127, 2-(3-amino-1-(2,4-difluorophenyl)-1H-1,2,4-triazol-5-yl)-N-methyl-4,5-dihydrobenzo[b]thieno[2,3-d]oxepine-8-carboxamide] | 0.05 | 60 | 37 | 147 | –
CN(CCC#N)C(=O)c1nc2c(s1)CCOc1cc(-c3cn[nH]c3)ccc1-2 [compound 153, 8-(1H-Pyrazol-4-yl)-4,5-dihydro-6-oxa-3-thia-1-aza-benzo[e]azulene-2-carboxylic acid (2-cyano-ethyl)-methyl-amide] | 58 | – | – | – | –
Nc1nc(-c2cc3c(s2)-c2ccc(C(=O)NCCO)cc2OCC3)n(-c2ccc(F)cc2F)n1 [compound 151, 2-(3-amino-1-(2,4-difluorophenyl)-1H-1,2,4-triazol-5-yl)-N-(2-hydroxyethyl)-4,5-dihydrobenzo[b]thieno[2,3-d]oxepine-8-carboxamide] | 0.2 | – | – | – | –
